Experimental data: article PMC4932538, “Alkanediamide-Linked Bisbenzamidines Are Promising Antiparasitic Agents” (Pharmaceuticals, 2016)
Like-named read-outs stand apart in the source and are kept apart here.

Key:
[1] = tested on: T. b. brucei Lab 110 EATRO (pentamidine-sensitive); assay: In vitro antitrypanosomal activity, T.b. brucei Lab 110 EATRO; format: cell-based, Trypanosoma brucei brucei; conditions: Trypanosoma brucei; Table S1; from IC50 of Table 1; read-out: pIC50 T.b. brucei (converted)
Protocol: (§5) The in vitro assays with the two isolates of T. brucei were conducted according to previously described procedures [14].

[2] = tested on: T. b. rhodesiense KETRi 243 (melarsoprol, pentamidine- and diminazene diaceturate-resistant); assay: In vitro antitrypanosomal activity, T.b. rhodesiense KETRI 243; format: cell-based, Trypanosoma brucei rhodesiense; conditions: Trypanosoma brucei, RHODESIENSE; Table S1; from IC50 of Table 1; read-out: pIC50 T.b. rhod (converted)
Protocol: (§6) The anti-T. cruzi activity was determined using intracellular amastigote forms of T. cruzi Tulahuen strain C2C4 in rat skeletal myoblasts (L6 cells) as described previously [24]. The anti-L. donovani activity was determined using the amastigotes of L. donovani strain MHOM-ET-67/L82 as described previously [24]. […] The cytotoxicity assays against rat skeletal myoblast L6-cells were performed as described previously [24].

poly(dA-dT) = assay: DNA thermal melting with poly(dA-dT); format: binding; conditions: 1:5 compound to DNA base pair ratio; mean of at least two determinations
Protocol: (§1) In addition to the determination of the potency of the synthesized compounds against different strains of cell lines (Table 1), thermal melting experiments of these compounds were also conducted with poly(dA-dT) and calf thymus DNA (Table S1, supplementary file). […] The weaker binding to DNA (lower ΔTm values) compared to pentamidine might be attributed to the lower lipophilicity and higher PSA properties of these compounds since they would be expected to bind less favorably in the less polar environment of the minor grove of DNA as was reported for the aza-analogues of furamidine. […] Therefore, ability of these compounds to act at other potential targets cannot be ruled out.
(§2) The DNA binding affinity of the tested compounds was determined by measuring the change in mid-point of the thermal denaturation curves for a 1:5 compound to DNA base pair ratio as described previously. Each Tm value reported in Table S1 (supplementary file) represents the mean of at least two experimental determinations.

calf thymus DNA = assay: DNA thermal melting with calf thymus DNA; format: binding; conditions: 1:5 compound to DNA base pair ratio; mean of at least two determinations
Protocol: as §1, §2

[3] = tested on: T. b. brucei Lab 110 EATRO (pentamidine-sensitive); set-up: method as in PMID 19736009; conditions: strain Lab 110; average of at least two determinations; cited from earlier work
[4] = tested on: rat skeletal myoblast L6-cells; assay: Cytotoxicity against L6 cells; format: cell-based; conditions: Rattus norvegicus, L6; cytotoxicity; read-out: IC50 L6 Cells
Protocol: as §6

[5] = tested on: amastigotes of L. donovani strain MHOM-ET-67/L82; assay: In vitro anti-L. donovani activity; format: cell-based, Leishmania donovani; conditions: Leishmania donovani; average of at least two determinations
Protocol: as §6

[6] = set-up: method as in PMID 24036514; conditions: incubation in vitro with mouse liver microsomes; cited from earlier work
[7] = tested on: P. falciparum K1 (chloroquine-resistant); assay: In vitro anti-plasmodial activity, K1; format: cell-based, Plasmodium falciparum; conditions: Plasmodium falciparum, K1
Protocol: as §6

[8] = tested on: intracellular amastigote forms of T. cruzi Tulahuen strain C2C4 in rat skeletal myoblasts (L6 cells); assay: In vitro anti-T. cruzi activity; format: cell-based, Trypanosoma cruzi; conditions: Trypanosoma cruzi, TULAHUEN, L6; average of at least two determinations
Protocol: as §6

[9] = human, in vivo; cited from earlier work
[10] = tested on: P. falciparum NF54 (chloroquine-sensitive); assay: In vitro anti-plasmodial activity, NF54; format: cell-based, Plasmodium falciparum; conditions: Plasmodium falciparum, NF54; chloroquine-sensitive strain; read-out: IC50 P. falcip NF54
[11] = tested on: T.b. rhodesiense KETRI 1992; assay: In vivo trypanocidal activity in mice, KETRI 1992; conditions: KETRI 1992
[12] = tested on: T. b. rhodesiense KETRi 243 (melarsoprol, pentamidine- and diminazene diaceturate-resistant); set-up: method as in PMID 19736009; conditions: strain KETRI 243; average of at least two determinations; read-out: IC50 T.b. rhod; cited from earlier work
[13] = tested on: both strains of T. brucei and P. falciparum; assay: In vitro potency against both strains of T. brucei and P. falciparum; format: cell-based, Trypanosoma brucei; Plasmodium falciparum; conditions: range over T.b. brucei, T.b. rhodesiense, P. falciparum NF54 and K1
Protocol: as §5

hemozoin formation = tested on: hemozoin formation; set-up: method as in PMID 15115412; conditions: micromolar concentrations, ex vivo; cited from earlier work
Pneumocystis = tested on: Pneumocystis; set-up: method as in PMID 16801410; conditions: 20 mg/kg and 40 mg/kg, cited from earlier work
[14] = tested on: T.b. brucei Lab 110 EATRO; assay: In vivo trypanocidal activity in mice, Lab 110 EATRO; conditions: for curing of infected mice: i.p., 3 days
Protocol: (§3) The compounds were administered via the intraperitoneal route at doses ranging from 1.0 mg/kg/day to 25.0 mg/kg/day for 3 days unless otherwise noted. Pentamidine was used as the reference compound. All three of the tested compounds were effective in curing mice infected with the Lab 110 EATRO or KETRI 2002 strains at several doses.
(§4) The in vivo studies were conducted according to the procedures described previously.

[15] = tested on: T.b. rhodesiense KETRI 2002; assay: In vivo trypanocidal activity in mice, KETRI 2002; conditions: for curing of infected mice: KETRI 2002, i.p., 3 days; for Mean Survival: KETRI 2002, 10, 15, 25 mg/kg/day i.p. for 3 days (all doses)
Protocol: as §3, §4

[16] = tested on: T.b. rhodesiense KETRI 2538; assay: In vivo trypanocidal activity in mice, KETRI 2538; conditions: for Mean Survival: KETRI 2538; for curing of infected mice: drug-resistant KETRI 2538, i.p., 3 days
Protocol: as §3, §4

[17] = Table S1, from IC50 of Table 1, read-out: pIC50 P. falcip K1 (converted)
[18] = chloroquine-resistant strain, read-out: IC50 P. falcip K1

SMILES	IC50 [1] [nM]	IC50 [2] [nM]	Thermal Melting ΔTm Poly(dA-dT) (poly(dA-dT)) [C]	Thermal Melting ΔTm CT-DNA (calf thymus DNA) [C]	IC50 [3] [nM]	IC50 [4] [nM]	IC50 [5] [nM]	IC50 [7, 17] [nM]	IC50 [7, 18] [nM]	IC50 [8] [nM]	IC50 [10] [nM]	IC50 [12] [nM]	IC50 [13] [nM]	Mean Survival ([14]; 1.0 mg/kg/day i.p. for 3 days) [days]	No. of Mice Cured/Total (%) ([14]; 1.0 mg/kg/day i.p. for 3 days)	Mean Survival ([14]; 2.5 mg/kg/day i.p. for 3 days) [days]	No. of Mice Cured/Total (%) ([14]; 2.5 mg/kg/day i.p. for 3 days)	Mean Survival ([14]; 5 mg/kg/day i.p. for 3 days) [days]	Mean Survival ([14]; 10 mg/kg/day i.p. for 3 days) [days]	Mean Survival ([14]; 15 mg/kg/day i.p. for 3 days) [days]	other results
NC(=NO)c1ccc(NC(=O)CCCC(=O)Nc2ccc(C(N)=NO)cc2)cc1 [Compound 4]	7290	10000	0.0	0.7	7300	> 100000	> 100000	3160	3160	> 100000											metabolism of the amidoxime moiety to the amidine function [6]: readily metabolized
CONC(=N)c1ccc(-c2ccc(-c3ccc(C(=N)NOC)cc3)o2)cc1.O=C(O)/C=C\C(=O)O [parafuramidine maleate]																					toxicity that halted development [9]: nephrotoxicity
N=C(N)c1ccc(NC(=O)CCCC(=O)Nc2ccc(C(=N)N)cc2)cc1 [Compound 5]	8.99	95.9	11.4	5.6	9	69000	> 100000	2	2	> 100000	2	96	1 to 96	6.0	0/3	11.3	0/3	10	>30	>30	Mean Survival ([11]; 10 mg/kg/day i.p. for 3 days): 17.5 days; No. of Mice Cured/Total (%) ([11]; 10 mg/kg/day i.p. for 3 days): 0/3; Mean Survival ([11]; 15 mg/kg/day i.p. for 3 days): 14.5 days; No. of Mice Cured/Total (%) ([11]; 15 mg/kg/day i.p. for 3 days): 0/3; Mean Survival ([11]; 25 mg/kg/day i.p. for 3 days): 25 days; No. of Mice Cured/Total (%) ([11]; 25 mg/kg/day i.p. for 3 days): 0/3; interference with hemozoin formation (hemozoin formation): interfere with hemozoin formation; survival versus pentamidine treated mice (Pneumocystis; same doses of pentamidine): improved survival curves; reductions in burden (Pneumocystis): > 1000 fold; curing of infected mice [14]: highly effective; curing of infected mice [15]: highly effective; Mean Survival [15]: >30 days; Mean Survival ([16]; 10, 15, 25 mg/kg/day i.p. for 3 days (all doses)): >30 days; curing of infected mice [16]: highly efficacious
N=C(N)c1ccc(NC(=O)CCCCC(=O)Nc2ccc(C(=N)N)cc2)cc1 [Compound 6]	3	2	14.4	8.7	3	> 100000	> 100000	18	18	> 100000	4	2	1 to 96	6.7	0/3	10.0	0/3	>30	>30	>30	curing of infected mice [14]: highly effective; curing of infected mice [15]: highly effective; Mean Survival [15]: >30 days; Mean Survival ([16]; 5, 10, 15 mg/kg/day i.p. for 3 days (all doses)): >30 days; curing of infected mice [16]: highly efficacious
